In patent publication US20150218172A1, “Pyrrolo[2,3-D]Pyrimidine Tropomyosin-Related Kinase Inhibitors” (PFIZER LIMITED, priority 2012, published 2015):

The molecules below were run against T1, TrkA (Homo sapiens, UniProt P04629) (assay: Isolated TRK enzyme assay (HTRF KinEASE-TK kit), PV3144 TrkA enzyme assay). Settings: PV3144 TrkA enzyme assay, recombinant His-tagged cytoplasmic domain aa 441-796, 4 nM enzyme, 40 uM ATP; arithmetic mean where more than one reading; read-out: Trka enzyme (IC50).
T1 construct: aa 441-796; His; purchased Invitrogen PV3144
Assay type: biochemical
Description: Isolated TRK Enzyme assays use the HTRF KinEASE-TK kit (Cisbio Cat#62TK0PEJ) with recombinant His-tagged cytoplasmic domains of each TRK receptor sourced from Invitrogen (see table below). This activity-assay measures the phosphorylation of tyrosine residues within a substrate from the HTRF kit which has been validated by Cisbio for a variety of tyrosine kinases including the TRK receptors.
0.5 mM stock solutions of test compounds are prepared and serially diluted in 100% DMSO. A standard curve using the compound of Example 135 disclosed in WO2005/116035 of 150 uM is also prepared on each test plate. High percentage effect (HPE) is defined by 150 uM (using the compound of Example 135 as disclosed in WO2005/116035) and 0% effect (ZPE) is defined by 100% DMSO. Greiner low volume black plates containing 0.2 ul of serially diluted compound, standard and HPE/ZPE are created using the Bravo nanolitre dispenser.
1X enzyme buffer is prepared from 5X Enzymatic Buffer from the Cisbio KinEASE TK kit using MilliQ water. The buffer is then supplemented with 10 mM MgCl and 2 mM DTT (both from Sigma). In the case of TRKB, the buffer is also supplemented with 125 nM Supplement Enzymatic Buffer (SEB) from the Cisbio kit.
2X FAC of enzyme and 2X FAC ATP diluted in 1X complete enzyme buffer is incubated at room temperature for 20 minutes to preactivate the enzyme. Following this preactivation step, 5 ul/well of enzyme+ATP mix is added using a Multidrop Micro to the assay plate, spotted with 0.2 ul 100% DMSO compound. This is left for 20 mins at room temperature before adding 5 ul of 2 uM TK-substrate-Biotin (from the Cisbio kit) diluted in 1X enzyme buffer (1 uM FAC) using the Multidrop Micro. The reaction is incubated at room temperature for the optimized assay reaction time (see table). The reaction is stopped by adding 10 ul/well HTRF Detection Buffer containing 0.25 uM Streptavidin-XL665 (0.125 uM FAC) and 1:200 TK Antibody-Cryptate using a Multidrop.
After the Detection Reagent addition, plates are covered and incubated at room temperature for 60 minutes. HTRF signal is read using an Envision reader, measured as a ratio of emissions at two different wavelengths, 620 nm and 665 nm. […] Test compound data are expressed as percentage inhibition defined by HPE and ZPE values for each plate. Percentage inhibition in the presence of test compound is plotted against compound concentration on a log scale to determine an IC50 from the resultant sigmoid curve.
Below are TrkA IC50 data generated using the PV3144 TrkA enzyme assay. Where more than one reading was taken, the arithmetic mean is presented.

T1 sequence (P04629 441-796): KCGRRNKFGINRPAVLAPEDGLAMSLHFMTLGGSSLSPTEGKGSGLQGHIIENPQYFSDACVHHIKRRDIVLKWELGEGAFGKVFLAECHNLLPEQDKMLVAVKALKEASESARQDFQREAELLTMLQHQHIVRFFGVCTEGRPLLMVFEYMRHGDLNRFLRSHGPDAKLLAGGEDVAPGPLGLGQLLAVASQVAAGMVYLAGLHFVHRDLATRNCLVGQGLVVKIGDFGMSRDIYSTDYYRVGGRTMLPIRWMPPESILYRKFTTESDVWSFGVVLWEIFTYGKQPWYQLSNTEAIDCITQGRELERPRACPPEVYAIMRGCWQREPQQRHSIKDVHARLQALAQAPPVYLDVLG

SMILES	IC50
CC(C)n1cc(C(=O)c2ccnc(NC(=O)Cc3ccc(Cl)cc3Cl)c2)c2cncnc21 [Example 157, 2-(2,4-dichlorophenyl)-N-(4-{[7-(propan-2-yl)-7H-pyrrolo[2,3-d]pyrimidin-5-yl]carbonyl}pyridin-2-yl)acetamide]	15.6 nM
CC(C)(CO)n1cc(C(=O)c2cc(NC(=O)Cn3ccc(C(F)(F)F)n3)ccn2)c2cncnc21 [Example 59, N-(2-{[7-(1-hydroxy-2-methylpropan-2-yl)-7H-pyrrolo[2,3-d]pyrimidin-5-yl]carbonyl}pyridin-4-yl)-2-[3-(trifluoromethyl)-1H-pyrazol-1-yl]acetamide]	12.3 nM
C[C@@H](CO)n1cc(C(=O)c2cc(NC(=O)Cc3ccc(F)cn3)ccn2)c2cncnc21 [Example 18, 2-(5-fluoropyridin-2-yl)-N-[2-({7-[(2S)-1-hydroxypropan-2-yl]-7H-pyrrolo[2,3-d]pyrimidin-5-yl}carbonyl)pyridin-4-yl]acetamide]	202 nM
O=C(Cc1ccc(F)cc1F)Nc1cc(C(=O)c2cn(CCO)c3ncncc23)ccn1 [Example 140, 2-(2,4-difluorophenyl)-N-(4-{[7-(2-hydroxyethyl)-7H-pyrrolo[2,3-d]pyrimidin-5-yl]carbonyl}pyridin-2-yl)acetamide]	223 nM
C[C@@H](CO)n1cc(C(=O)c2cc(NC(=O)Cc3cccc(C(F)(F)F)c3)ccn2)c2cncnc21 [Example 24, N-[2-({7-[(2S)-1-hydroxypropan-2-yl]-7H-pyrrolo[2,3-d]pyrimidin-5-yl}carbonyl)pyridin-4-yl]-2-[3-(trifluoromethyl)phenyl]acetamide]	59.8 nM
Cc1cn(CC(=O)Nc2cc(C(=O)c3cn(CCO)c4ncncc34)ccn2)nn1 [Example 133, N-(4-{[7-(2-hydroxyethyl)-7H-pyrrolo[2,3-d]pyrimidin-5-yl]carbonyl}pyridin-2-yl)-2-(4-methyl-1H-1,2,3-triazol-1-yl)acetamide]	9380 nM
CC(C)(C)n1cc(C(=O)c2cc(NC(=O)Cc3ccc(Cl)cc3)ccn2)c2cncnc21 [Example 42, N-{2-[(7-tert-butyl-7H-pyrrolo[2,3-d]pyrimidin-5-yl)carbonyl]pyridin-4-yl}-2-(4-chlorophenyl)acetamide]	11.5 nM
COc1ccc(CC(=O)Nc2cc(C(=O)c3cn(C(C)C)c4ncncc34)ccn2)cc1 [Example 161, 2-(4-methoxyphenyl)-N-(4-{[7-(propan-2-yl)-7H-pyrrolo[2,3-d]pyrimidin-5-yl]carbonyl}pyridin-2-yl)acetamide]	60.8 nM
Cc1cc(C)n(CC(=O)Nc2cc(C(=O)c3cn(C(C)C)c4ncncc34)ccn2)n1 [Example 152, 2-(3,5-dimethyl-1H-pyrazol-1-yl)-N-(4-{[7-(propan-2-yl)-7H-pyrrolo[2,3-d]pyrimidin-5-yl]carbonyl}pyridin-2-yl)acetamide]	71.2 nM
O=C(Cc1ccc(Cl)cc1)Nc1cc(C(=O)c2cn(CCO)c3ncncc23)ccn1 [Example 136, 2-(4-chlorophenyl)-N-(4-{[7-(2-hydroxyethyl)-7H-pyrrolo[2,3-d]pyrimidin-5-yl]carbonyl}pyridin-2-yl)acetamide]	25.8 nM
CC(C)(CO)n1cc(C(=O)c2ccc(C#N)c(NC(=O)Cn3cc(C(F)(F)F)nn3)c2)c2cnc(N)nc21 [Example 12, N-(5-{[2-amino-7-(1-hydroxy-2-methylpropan-2-yl)-7H-pyrrolo[2,3-d]pyrimidin-5-yl]carbonyl}-2-cyanophenyl)-2-[4-(trifluoromethyl)-1H-1,2,3-triazol-1-yl]acetamide]	60.7 nM
CC(C)n1cc(C(=O)c2cc(NC(=O)Cc3ccc(F)cn3)ccn2)c2cnc(N)nc21 [Example 89, N-(2-{[2-amino-7-(propan-2-yl)-7H-pyrrolo[2,3-d]pyrimidin-5-yl]carbonyl}pyridin-4-yl)-2-(5-fluoropyridin-2-yl)acetamide]	76.3 nM
CC(C)(CO)n1cc(C(=O)c2ccnc(NC(=O)Cc3ccc(C#N)cc3)c2)c2cncnc21 [Example 111, 2-(4-cyanophenyl)-N-(4-{[7-(1-hydroxy-2-methylpropan-2-yl)-7H-pyrrolo[2,3-d]pyrimidin-5-yl]carbonyl}pyridin-2-yl)acetamide]	31.8 nM
CC(C)(CO)n1cc(C(=O)c2cc(NC(=O)Cc3ccc(C(F)(F)F)cc3)ccn2)c2cnc(N)nc21 [Example 50, N-(2-{[2-amino-7-(1-hydroxy-2-methylpropan-2-yl)-7H-pyrrolo[2,3-d]pyrimidin-5-yl]carbonyl}pyridin-4-yl)-2-[4-(trifluoromethyl)phenyl]acetamide]	9.29 nM
Cc1cc(C)n(CC(=O)Nc2cc(C(=O)c3cn([C@H]4CC[C@H](O)CC4)c4ncncc34)ccn2)n1 [Example 3, 2-(3,5-dimethyl-1H-pyrazol-1-yl)-N-(4-{[7-(trans-4-hydroxycyclohexyl)-7H-pyrrolo[2,3-d]pyrimidin-5-yl]carbonyl}pyridin-2-yl)acetamide]	183 nM
CC(C)n1cc(C(=O)c2ccnc(NC(=O)Cc3ccc(OC4CC4)cc3)c2)c2cncnc21 [Example 72, 2-[4-(cyclopropyloxy)phenyl]-N-(4-{[7-(propan-2-yl)-7H-pyrrolo[2,3-d]pyrimidin-5-yl]carbonyl}pyridin-2-yl)acetamide]	117 nM

Continued by falling IC50, values first:

IC50	SMILES
1080 nM	CC1(n2cc(C(=O)c3cc(NC(=O)Cc4ccc(F)cn4)ccn3)c3cncnc32)COC1 [Example 172, 2-(5-fluoropyridin-2-yl)-N-(2-{[7-(3-methyloxetan-3-yl)-7H-pyrrolo[2,3-d]pyrimidin-5-yl]carbonyl}pyridin-4-yl)acetamide]
922 nM	O=C(Cc1ccc(C(F)(F)F)c(F)c1)Nc1ccnc(C(=O)c2cn(C(CO)CO)c3ncncc23)c1 [Example 94, N-(2-{[7-(1,3-dihydroxypropan-2-yl)-7H-pyrrolo[2,3-d]pyrimidin-5-yl]carbonyl}pyridin-4-yl)-2-[3-fluoro-4-(trifluoromethyl)phenyl]acetamide]
369 nM	Cc1cc(C(F)(F)F)nn1CC(=O)Nc1ccnc(C(=O)c2cn(C(C)(CO)CO)c3ncncc23)c1 [Example 108, N-(2-{[7-(1,3-dihydroxy-2-methylpropan-2-yl)-7H-pyrrolo[2,3-d]pyrimidin-5-yl]carbonyl}pyridin-4-yl)-2-[5-methyl-3-(trifluoromethyl)-1H-pyrazol-1-yl]acetamide]
250 nM	Cc1cc(C(F)(F)F)nn1CC(=O)Nc1cc(C(=O)c2cn(C(C)C)c3nc(O)ncc23)ccn1 [Example 125, N-(4-{[2-hydroxy-7-(propan-2-yl)-7H-pyrrolo[2,3-d]pyrimidin-5-yl]carbonyl}pyridin-2-yl)-2-[5-methyl-3-(trifluoromethyl)-1H-pyrazol-1-yl]acetamide]
247 nM	O=C(Cn1ccc(C(F)(F)F)n1)Nc1ccnc(C(=O)c2cn(C(CO)CO)c3ncncc23)c1 [Example 101, N-(2-{[7-(1,3-dihydroxypropan-2-yl)-7H-pyrrolo[2,3-d]pyrimidin-5-yl]carbonyl}pyridin-4-yl)-2-[3-(trifluoromethyl)-1H-pyrazol-1-yl]acetamide]
226 nM	Cc1cc(C(=O)c2cn(C(C)C)c3ncncc23)cc(NC(=O)Cc2ccc(F)cc2)n1 [Example 77, 2-(4-fluorophenyl)-N-(6-methyl-4-{[7-(propan-2-yl)-7H-pyrrolo[2,3-d]pyrimidin-5-yl]carbonyl}pyridin-2-yl)acetamide]
201 nM	CC(C)c1cn(CC(=O)Nc2cc(C(=O)c3cn(CCO)c4ncncc34)ccn2)nn1 [Example 129, N-(4-{[7-(2-hydroxyethyl)-7H-pyrrolo[2,3-d]pyrimidin-5-yl]carbonyl}pyridin-2-yl)-2-[4-(propan-2-yl)-1H-1,2,3-triazol-1-yl]acetamide]
34.3 nM	CC(C)n1cc(C(=O)c2ccnc(NC(=O)Cc3ccc(C#N)cn3)c2)c2cncnc21 [Example 62, 2-(5-Cyanopyridin-2-yl)-N-{4-[(7-isopropyl-7H-pyrrolo[2,3-d]pyrimidin-5-yl)carbonyl}pyridin-2-yl]acetamide]
12.4 nM	CC(C)n1cc(C(=O)c2ccnc(NC(=O)Cc3cccc(OC(F)(F)F)c3)c2)c2cncnc21 [Example 154, N-(4-{[7-(propan-2-yl)-7H-pyrrolo[2,3-d]pyrimidin-5-yl]carbonyl}pyridin-2-yl)-2-[3-(trifluoromethoxy)phenyl]acetamide]
